US6699459B2, “Methods of treating lung inflammation” (The Board of Regents of the University of Texas System, priority 2001, dated 2004)

Key:
RANTES mRNA = assay: Northern blot of RANTES mRNA in RSV-infected A549 cells; type: cell-based, human; details: 400 μM
Description: Cell culture and infection of epithelial cells with RSV. A549, human alveolar type II-like epithelial cells (ATCC, Manassas, Va.), were maintained in F12K medium containing 10% (v/v) fetal bovine serum (FBS), 10 mM glutamine, 100 IU/ml penicillin and 100 μg/ml streptomycin. Small alveolar epithelial cells (SAE) were obtained from Clonetics (San Diego, Calif.) and grown according to the company instructions. Cell monolayers were infected with RSV at multiplicity of infection (MOI) of 1 (unless otherwise stated), as described (17). An equivalent amount of a 20% sucrose solution was added to uninfected A549 cells, as a control. For the antioxidant experiments, cells were pretreated with the antioxidants for one hour and then infected in the presence of the antioxidants. Since BHA was diluted in ethanol, equal amounts of ethanol were added to untreated cells, as a control. Total number of cells, cell viability and viral replication, following antioxidant treatment, were measured by trypan blue exclusion and by plaque assay, respectively. Northern Blot. Total RNA was extracted from control and infected A549 cells by the acid guanidium thiocyanate-phenol chloroform method (18). Twenty micrograms of RNA were fractionated on a 1.2% agarose-formaldehyde gel, transferred to nylon membranes and hybridized to a radiolabeled RANTES, IRF-1, -3 and -7 cDNAs, as previously described (19). […]

RANTES ISRE = assay: EMSA of RANTES ISRE binding complexes, nuclear extracts of RSV-infected A549 cells; type: cell-based, human; details: RSV 12 hours, 400 μM
Description: Electrophoretic mobility shift assay (EMSA): Nuclear extracts of uninfected and infected A549 cells were prepared using hypotonic/nonionic detergent lysis, as previously described (20). Proteins were normalized by protein assay (Protein Reagent, Bio-Rad, Hercules, Calif.) and used to bind to a duplex oligonucleotide corresponding to the RANTES ISRE, whose sequences is shown below:
DNA-binding reactions contained 10-15 μg nuclear proteins, 5% glycerol, 12 mM HEPES, 80 mM NaCl, 5 mM dithiothreitol (DTT), 5 mM Mg2Cl, 0.5 mM EDTA, 1 μg of poly dI-dC and 40,000 cpm of ^32P-labeled double-stranded oligonucleotide in a total volume of 20 μl. The nuclear proteins were incubated with the probe for 15 minutes at room temperature and then fractionated by 6% nondenaturing polyacrylamide gels (PAGE) in TBE buffer (22 mM Tris-HCl, 22 mM boric acid, 0.25 mM EDTA, pH 8). After electrophoretic separation, gels were dried and exposed for autoradiography using Kodak XAR film at −70° C. using intensifying screens.

IRF-1 = assay: Western blot of IRF-1 in total cell lysates of RSV-infected A549 cells; type: cell-based, human; details: whole cell extracts, RSV 12 hours, 400 μM
Description: Western Immunoblot. Total cell lysates and cytoplasmic and nuclear proteins were prepared as previously described, fractionated by SDS-PAGE and transferred to PVDF membrane (20). Membranes were blocked with 5% albumin in TBS-Tween and incubated overnight with a rabbit polyclonal antibody to IRF-1, -3 and -7 (Santa Cruz Biotech, Santa Cruz, Calif.). For secondary detection, a horseradish-coupled anti-rabbit or anti-mouse antibody was used in the enhanced chemiluminescence assay (Amersham Pharmacia Biotec, Arlington Heights, Ill.).

IRF-1 mRNA = assay: Northern blot of IRF-1 mRNA in RSV-infected A549 cells; type: cell-based, human; details: 400 μM
Description: Northern Blot. Total RNA was extracted from control and infected A549 cells by the acid guanidium thiocyanate-phenol chloroform method (18). Twenty micrograms of RNA were fractionated on a 1.2% agarose-formaldehyde gel, transferred to nylon membranes and hybridized to a radiolabeled RANTES, IRF-1, -3 and -7 cDNAs, as previously described (19). Hybridization temperature for all probes was 55° C. After washing, membranes were exposed for autoradiography using Kodak XAR film at −70° C. using intensifying screens. After exposure, membranes were stripped and rehybridized with a β-actin probe.

human IRF-7 promoter = assay: IRF-7 promoter luciferase reporter in A549 cells; type: cell-based
Description: Cell transfection. To investigate IRF-1 and -7 gene transcription, A549 cells were transiently transfected with the IRF-1 or -7 promoter, linked to the luciferase reporter gene. Logarithmically growing A549 cells were transfected in triplicate in 60 mm petri dishes by DEAE-Dextran, as previously described (20). Cells were incubated in 2 ml of HEPES buffered DMEM (10 mM Hepes, pH 7.4) containing 20 μl of 60 mg/ml DEAE-Dextran (Amersham Pharmacia Biotec, Arlington Heights, Ill.) premixed with 6 μg of either IRF-1 or -7 plasmids and 1 μg CMV-β galactosidase internal control plasmid. After 3 hours, media was removed and 0.5 ml of 10% (v/v) DMSO in PBS was added to the cells for 2 minutes. Cells were washed with PBS and cultured overnight in 10% FBS/DMEM. The next morning, cells were infected with RSV and cells were lysed at different times post-infectionto measure independently luciferase and galactosidase reporter activity, as previously described (20). Luciferase was normalized to the internal control galactosidase activity. All experiments were performed in duplicate or triplicate.

A549 cells = assay: Total number of cells and cell viability by trypan blue exclusion; type: cell-based, human; details: 400 μM, data not shown
Description: Cell culture and infection of epithelial cells with RSV. A549, human alveolar type II-like epithelial cells (ATCC, Manassas, Va.), were maintained in F12K medium containing 10% (v/v) fetal bovine serum (FBS), 10 mM glutamine, 100 IU/ml penicillin and 100 μg/ml streptomycin. Small alveolar epithelial cells (SAE) were obtained from Clonetics (San Diego, Calif.) and grown according to the company instructions. Cell monolayers were infected with RSV at multiplicity of infection (MOI) of 1 (unless otherwise stated), as described (17). An equivalent amount of a 20% sucrose solution was added to uninfected A549 cells, as a control. For the antioxidant experiments, cells were pretreated with the antioxidants for one hour and then infected in the presence of the antioxidants. Since BHA was diluted in ethanol, equal amounts of ethanol were added to untreated cells, as a control. Total number of cells, cell viability and viral replication, following antioxidant treatment, were measured by trypan blue exclusion and by plaque assay, respectively.

Compound: COc1ccc(O)c(C(C)(C)C)c1 [BHA, butylated hydroxyanisol]
- RSV-induced RANTES mRNA induction (RANTES mRNA; 6 and 12 hours post-infection): completely inhibited
- RSV-induced RANTES mRNA induction (RANTES mRNA; 24 hours post-infection): greatly reduced
- RSV-induced RANTES ISRE binding (RANTES ISRE): completely abolished
- RSV-induced IRF-1 protein synthesis (IRF-1): almost completely abolished
- IRF-1 mRNA accumulation (IRF-1 mRNA; 6 and 12 hours post-infection): almost completely blocked
- IRF-1 mRNA accumulation (IRF-1 mRNA; 24 hours post-infection): significantly reduced
- basal level of transcription (IRF-7 promoter) (human IRF-7 promoter; A549 cells): did not affect
- RSV-induced luciferase activity (IRF-7 promoter) (human IRF-7 promoter; RSV 6 hours, 400 μM): completely abolished
- total cell number and viability (A549 cells): unchanged
